Experimental data published in patent US20250099407A1, “2-AMINO BENZOPHENONE DERIVATIVES FOR TARGETED FERROPTOSIS INDUCTION IN CANCER THERAPY” (INDIAN INSTITUTE OF TECHNOLOGY KANPUR, priority 2023, published 2025).

Legend:
[1] = tested on: Huh-7 cells; assay: Cell viability, luminescence-based CellTiter-Glo assay, Huh-7 cells; settings: Homo sapiens, Huh-7, Huh-7 cells, cell viability; read-out: EC50 Huh-7
Description: The viability of Huh-7 cells was recorded using a luminescence-based CellTiter-Glo® assay. The screening concentration of the molecules were 10 μM with or without Fer-1 (10 μM) in DMEM media (>0.1% DMSO as control).
Ferroptosis is a unique form of cell death mechanism mediated by the accumulation of lipid peroxides in cells which is distinct from healthy cells' apoptosis, a programmed […] route. We aimed to exploit the induction of ferroptosis in cancer cells using covalent small molecules as a potential strategy for cancer therapeutic development. […] We used various amide bond formation chemistry to construct the library members and these molecules are well characterized by various spectroscopic and mass spectrometry techniques. Once confirmed, these thiol reactive library members were screened in a cancer cell viability assay in combination with ferrostatin-1 (Fer-1), a ferroptosis inhibitor as depicted in FIG. 11. […] We have screened a total of ˜50 electrophilic small molecules to prevent the proliferation of hepatocellular carcinoma (Huh-7 cells) in combination with and without Fer-1. From our initial screening, we identified haloacetamides of 2-aminoalkylbenzophenone as potential ferroptosis inducers as depicted in FIG. 11.
(§1) The viability of screened cancer cells was recorded using a luminescence-based CellTiter-Glo® assay for the ATP quantification. The screening concentration of the molecule ranged from 100/10 μM to 45/4.5 nM with an 8-point-3-fold dilution series in DMEM media (>0.1% DMSO as control). Each experiment was conducted in more than two biological replicates with three technical replicates. The error bar is a representation of standard deviation among the technical replicates.
The viability of screened cancer cells was recorded using a luminescence-based CellTiter-Glo® assay for the ATP quantification. The screening concentration of IITK3002 ranged from 10 μM to 4.5 nM with an 8-point-3-fold dilution series in DMEM media (>0.1% DMSO as control). Each experiment was conducted in more than two biological replicates with three technical replicates. The error bar is a representation of standard deviation among the technical replicates. […]
a. Electrophilic Warhead Optimization: Once we identified 2-benzoylphenyl-a-haloacetamide as the lead scaffold, we have investigated the structure-activity-relationship analysis to precisely capture the effect of various chemical handles of the scaffold and use the knowledge to improve the overall potency and selectivity of this molecule to prevent cancer cell proliferation. First, we changed the haloacetamide electrophilic unit with various other electrophiles with a characteristic high, moderate, and weak reactivity with thiols when compared to chloroacetamide. Therefore, we opted vinylsulfonamide (highly reactivity), acrylamide (moderate reactivity), and phenoxyacetamides (weak reactivity warheads) for incorporation in the place of haloacetamide warhead of the top hit scaffold. Once synthesized, these molecules were evaluated to assess their antiproliferative potency against Huh-7 cells (Table 2). As expected, the introduction of weakly reactive electrophilic warheads, phenoxyactamides, completely lost the activity against Huh-7 cells. […] Perhaps, the secondary interactions of the electrophilic warhead with the target proteins might play additional roles. Therefore, we shifted our focus to optimize the rest of the core scaffold for further SAR analysis. b. Role of N-Substitutions: Next, we synthesized the NH-derivative of haloacetamides to capture the importance of N-alkylation on the activity of our hit molecule. […] Perhaps the hydrogen bonding induced planarity around the warhead influences the molecules' weakened potency. Conversely, the additional flexibility in the lead molecule (tertiary amide) might contribute to the strong antiproliferative activity of the hit molecule. […]

[2] = tested on: U2OS; assay: Cell viability, CellTiter-Glo assay, U2OS; type: cell-based; settings: Homo sapiens
Description: as §1
(§2) The viability of screened cancer cells was recorded using a luminescence-based CellTiter-Glo® assay for the ATP quantification. The screening concentration of IITK3002 ranged from 10 μM to 4.5 nM with an 8-point-3-fold dilution series in DMEM media (>0.1% DMSO as control). Each experiment was conducted in more than two biological replicates with three technical replicates. The error bar is a representation of standard deviation among the technical replicates.
(§3) a. […] In parallel, we have also synthesized the bromoacetamide (IITK3002) version of the lead molecules which is slightly more reactive with thiol nucleophiles when compared to chlorooacetamide warheads as depicted in FIG. 13. […] In addition, we also evaluated the molecules' antiproliferative potency against a panel of twelve different cancer phenotypes. The set of cancer cell lines included liver, breast, colon, myeloma, bone, blood, skin, brain and prostate lineages (FIG. 2, 3, Table 1).

[3] = tested on: PC3; assay: Cell viability, CellTiter-Glo assay, PC3; type: cell-based; settings: Homo sapiens, PC-3, PC3, cell viability
Description: as §1, §2, §3

[4] = tested on: 22Rv1; assay: Cell viability, CellTiter-Glo assay, 22Rv1; type: cell-based; settings: Homo sapiens, 22Rv1, 22Rv1, cell viability
Description: as §1, §2, §3

[5] = tested on: A549; assay: Cell viability, A549; type: cell-based; settings: Homo sapiens

Structure (SMILES) | EC50 [1] [µM] | EC50 [2] [µM] | EC50 [3] [µM] | EC50 [4] [µM] | EC50 [5] [µM]
CC(C)N(C(=O)CCl)c1ccccc1C(=O)c1ccccc1 [IITK3028, N-(2-benzoylphenyl)-2-chloro-N-isopropylacetamide] | 19.6 | > 20 | > 20 | > 20 | > 20
CC(C)(C)c1ccc(OCC(=O)N(Cc2ccccc2)c2ccccc2C(=O)c2ccccc2)cc1 [IITK3038, N-(2-benzoylphenyl)-N-benzyl-2-(4-(tert-butyl)phenoxy)acetamide] | > 100 | > 20 | > 20 | > 20 | > 20
C#CCN(C(=O)COc1ccc(Br)cc1)c1ccccc1C(=O)c1ccccc1 [IITK3033, N-(2-benzoylphenyl)-2-(4-bromophenoxy)-N-(prop-2-yn-1-yl)acetamide] | > 20 | > 20 | > 20 | > 20 | > 20
C=CS(=O)(=O)N(C)c1ccccc1C(=O)c1ccccc1 [IITK3011, N-(2-benzoylphenyl)-N-methylethenesulfonamide] | – | > 20 | > 20 | > 20 | > 20
O=C(c1ccccc1)c1ccccc1N(Cc1ccccc1)C(=O)CCl [IITK3034, N-(2-benzoylphenyl)-N-benzyl-2-chloroacetamide] | – | – | – | 3.85 | –
CN(C(=O)COc1ccc(F)cc1)c1ccccc1C(=O)c1ccccc1 [IITK3006, N-(2-benzoylphenyl)-2-(4-fluorophenoxy)-N-methylacetamide] | > 20 | > 20 | > 20 | > 20 | > 20
C=CC(=O)N(C)c1ccccc1C(=O)c1ccccc1 [IITK3010, N-(2-benzoylphenyl)-N-methylacrylamide] | – | > 20 | > 20 | > 20 | > 20
CN(C(=O)COc1ccc(C(C)(C)C)cc1)c1ccccc1C(=O)c1ccccc1 [IITK3008, N-(2-benzoylphenyl)-2-(4-(tert-butyl)phenoxy)-N-methylacetamide] | > 20 | – | 12.8 | – | –
O=C(CCl)Nc1ccccc1C(=O)c1ccccc1 [IITK3012, N-(2-benzoylphenyl)-2-chloroacetamide] | – | > 20 | > 20 | > 20 | > 20
O=C(CBr)Nc1ccc([N+](=O)[O-])cc1C(=O)c1ccccc1 [IITK3051, N-(2-benzoyl-4-nitrophenyl)-2-bromoacetamide] | – | > 20 | > 20 | > 20 | > 20

Further lines, results first:

EC50 [1] [µM] | EC50 [2] [µM] | EC50 [3] [µM] | EC50 [4] [µM] | EC50 [5] [µM] | Structure (SMILES)
> 20 | > 20 | > 20 | > 20 | > 20 | C#CCN(C(=O)COc1ccccc1)c1ccccc1C(=O)c1ccccc1 [IITK3029, N-(2-benzoylphenyl)-2-phenoxy-N-(prop-2-yn-1-yl)acetamide]
> 20 | > 20 | > 20 | > 20 | > 20 | O=C(c1ccccc1)c1ccccc1N(Cc1ccccc1)C(=O)COc1ccccc1 [IITK3036, N-(2-benzoylphenyl)-N-benzyl-2-phenoxyacetamide]
– | > 100 | > 20 | > 20 | 20 | C=CCN(C(=O)COc1ccc(C(C)(C)C)cc1)c1ccccc1C(=O)c1ccccc1 [IITK3023, N-allyl-N-(2-benzoylphenyl)-2-(4-(tert-butyl)phenoxy)acetamide]
– | > 20 | > 20 | > 20 | > 20 | C=CCN(C(=O)COc1ccccc1)c1ccccc1C(=O)c1ccccc1 [IITK3020, N-allyl-N-(2-benzoylphenyl)-2-phenoxyacetamide]
– | 0.19 | 0.53 | 0.77 | 0.24 | O=C(c1ccccc1)c1ccccc1N(Cc1ccccc1)C(=O)CBr [IITK3035, N-(2-benzoylphenyl)-N-benzyl-2-bromoacetamide]
